Test results: US5300629A, “Bactericidal and/or bacteriostatic peptides isolated from hemolymph of honeybees” (Plant Genetic Systems, N.V., priority 1987, dated 1994)
≈ marks a conversion by molar mass, not a printed value. Where a SMILES comes first, the peptide text is derived from it.

Tests used:
Assay type in all cases: cell-based
[1] = system: Pseudomonas syringae pv. maculicola NCPPB 1776; experiment: Minimal inhibitory concentration in liquid culture; conditions: 200 μl rich medium, 10^4 log-phase bacteria
[2] = system: Bacillus megaterium QB 1551; experiment: Minimal inhibitory concentration in liquid culture; conditions: 200 μl rich medium, 10^4 log-phase bacteria, + = no inhibition at maximal value
[3] = system: Pseudomonas solanacearum ATCC 11696; conditions: 200 μl rich medium, 10^4 log-phase bacteria
[4] = system: Escherichia coli NCTC 9001; experiment: Minimal inhibitory concentration in liquid culture; conditions: 200 μl rich medium, 10^4 log-phase bacteria
[5] = system: Agrobactierium tumefaciens DSM 3129; experiment: Minimal inhibitory concentration in liquid culture; conditions: 200 μl rich medium, 10^4 log-phase bacteria
Salmonella Newport CD 94 = experiment: Minimal inhibitory concentration in liquid culture; conditions: 200 μl rich medium, 10^4 log-phase bacteria
[6] = system: Bacillus subtilis NRRL-B-237; experiment: Minimal inhibitory concentration in liquid culture; conditions: 200 μl rich medium, 10^4 log-phase bacteria, + = no inhibition at maximal value
[7] = system: Erwinia carotovora var atroseptica LMG 2385; experiment: Minimal inhibitory concentration in liquid culture; conditions: 200 μl rich medium, 10^4 log-phase bacteria
Bacillus alvei LMG 6922 = experiment: Minimal inhibitory concentration in liquid culture; conditions: 200 μl rich medium, 10^4 log-phase bacteria, + = no inhibition at maximal value
[8] = system: Pseudomonas syringae pv. tabaci NCPPB 1237; experiment: Minimal inhibitory concentration in liquid culture; conditions: 200 μl rich medium, 10^4 log-phase bacteria
[9] = system: Xanthomonas campestris pv. campestris A 902; experiment: Minimal inhibitory concentration in liquid culture; conditions: 200 μl rich medium, 10^4 log-phase bacteria, + = no inhibition at maximal value
[10] = system: Rhizobium meliloti ZB 314; experiment: Minimal inhibitory concentration in liquid culture; conditions: 200 μl rich medium, 10^4 log-phase bacteria
[11] = system: Citrobacter freundii ATCC 8090; experiment: Minimal inhibitory concentration in liquid culture; conditions: 200 μl rich medium, 10^4 log-phase bacteria
[12] = system: Salmonella typhimurium ATCC 23565; experiment: Minimal inhibitory concentration in liquid culture; conditions: 200 μl rich medium, 10^4 log-phase bacteria
[13] = system: Erwinia salicis NCPPB 2530; experiment: Minimal inhibitory concentration in liquid culture; conditions: 200 μl rich medium, 10^4 log-phase bacteria
E. coli NCTC 9001 = experiment: Bactericidal activity, method not stated; conditions: lyophilized apidaecins resuspended in PBS
[14] = system: Erwinia carotovora var carotovora NCPPB 312; experiment: Minimal inhibitory concentration in liquid culture; conditions: 200 μl rich medium, 10^4 log-phase bacteria
[15] = system: Corynebacterium michiganense pv. michiganense NCPPB 1573; experiment: Minimal inhibitory concentration in liquid culture; conditions: 200 μl rich medium, 10^4 log-phase bacteria, + = no inhibition at maximal value
Protocol: (§1) In addition the exact concentration was determined precisely by amino-acid analysis and an equal sample of natural Bee 6b was prepared, allowing to compare the bactericidal activity of both natural and synthetic apidaecins by means of growth inhibition assays in liquid cultures (see mat & Meth.). The minimal inhibitory concentrations (μg/ml) were determined in liquid culture : 200 μl of a rich medium (trypticase soy broth or nutrient broth) was inoculated with 10^4 log-phase bacteria. Peptide concentrations ranged between 0 and 200 μg/ml. The values express μg/ml; when no inhibition was noticed the maximal values are given (+200 μg/ml or +50 μg/ml). All peptides were chemically synthesized, except for bee 6b which is purified from bee lymph.

[16] = system: Xanthomonas campestris pv. vesicatoria LMG 905; experiment: Minimal inhibitory concentration in liquid culture; conditions: 200 μl rich medium, 10^4 log-phase bacteria, + = no inhibition at maximal value
Protocol: as §1

Shigella flexneri CP 87 = experiment: Minimal inhibitory concentration in liquid culture; conditions: 200 μl rich medium, 10^4 log-phase bacteria
Protocol: as §1

[17] = system: Corynebacterium insidiosum NCPPB 1109; experiment: Minimal inhibitory concentration in liquid culture; conditions: 200 μl rich medium, 10^4 log-phase bacteria
Protocol: as §1

[18] = system: Pseudomonas syringae pv. tomato NCPPB 1106; experiment: Minimal inhibitory concentration in liquid culture; conditions: 200 μl rich medium, 10^4 log-phase bacteria
[19] = system: Janthinobacterium lividum Sneath HB; experiment: Inhibition zone assay; design: key: --: "-" means that no inhibition has been found; conditions: I and B 10 ul, L 5 ug
[20] = system: Rhizobium phaseoli CIAT 899; experiment: Inhibition zone assay; design: key: --: "-" means that no inhibition has been found; conditions: I and B 10 ul, L 5 ug
[21] = system: Proteus morganii CuETM 77-83; experiment: Inhibition zone assay; design: key: --: "-" means that no inhibition has been found; conditions: I and B 10 ul, L 5 ug
[22] = system: Xanthomonas campestris pv. vesicatoria XV82-4; experiment: Inhibition zone assay; design: key: --: "-" means that no inhibition has been found; conditions: I and B 10 ul, L 5 ug
[23] = system: Bordetella bronchiseptica ATCC 19395; experiment: Inhibition zone assay; design: key: --: "-" means that no inhibition has been found; conditions: I and B 10 ul, L 5 ug
[24] = system: Pseudomonas acidovorans CuETM 83-109; experiment: Inhibition zone assay; design: key: --: "-" means that no inhibition has been found; conditions: I and B 10 ul, L 5 ug
[25] = system: Micrococcus lysodeikticus LMG 4050; experiment: Inhibition zone assay; conditions: I and B 10 ul, L 5 ug
[26] = system: Rhodococcus equi ATCC 25729; experiment: Inhibition zone assay; conditions: I and B 10 ul, L 5 ug
[27] = system: Serratia liquefaciens DSM 30125; experiment: Inhibition zone assay; design: key: --: "-" means that no inhibition has been found; conditions: I 10 ul, L 5 ug
[28] = system: Erwinia salicis NCPPB 2530; experiment: Inhibition zone assay; design: key: --: "-" means that no inhibition has been found; conditions: I and B 10 ul, L 5 ug
[29] = system: Pseudomonas cepacia ATCC 25416; experiment: Inhibition zone assay; design: key: --: "-" means that no inhibition has been found; conditions: I and B 10 ul, L 5 ug
[30] = system: Bacillus thuringiensis DSM 3131; experiment: Inhibition zone assay; design: key: --: "-" means that no inhibition has been found; conditions: I and B 10 ul, L 5 ug
[31] = system: Corynebacterium insidiosum NCPPB 1109; experiment: Inhibition zone assay; conditions: I and B 10 ul, L 5 ug
Protocol: Whole lymph or purified components, resuspended in PBS to a final volume equal to the starting material (heated lymph), was applied in 3 mm wells on agar plates seeded with the test organisms. Antibacterial activity was determined by measuring the growth-inhibition zones (in mm).

[32] = system: Agrobacterium radiobacter ATCC 19358; experiment: Inhibition zone assay; design: key: --: "-" means that no inhibition has been found; conditions: I and B 10 ul, L 5 ug
[33] = system: Bacillus megaterium QMB 1551; experiment: Inhibition zone assay; conditions: I and B 10 ul, L 5 ug
[34] = system: Serratia plymuthica ATCC 183; experiment: Inhibition zone assay; design: key: --: "-" means that no inhibition has been found; conditions: I and B 10 ul, L 5 ug
[35] = system: Azospirillum lipoferum ATCC 29707; experiment: Inhibition zone assay; design: key: --: "-" means that no inhibition has been found; conditions: I and B 10 ul, L 5 ug
[36] = system: Corynebacterium fascians NCPPB 1488; experiment: Inhibition zone assay; design: key: --: "-" means that no inhibition has been found; conditions: I and B 10 ul, L 5 ug
[37] = system: Staphylococcus hominis STH B3; experiment: Inhibition zone assay; design: key: --: "-" means that no inhibition has been found; conditions: L 5 ug
[38] = system: Bacillus subtilis NRRL B-237; experiment: Inhibition zone assay; design: key: --: "-" means that no inhibition has been found; conditions: I and B 10 ul, L 5 ug
[39] = system: Xanthomonas campestris pv. oryzae IRN 235; design: key: --: "-" means that no inhibition has been found
[40] = system: Erwinia carotovora var. atroseptica NCPPB 549; experiment: Inhibition zone assay; design: key: --: "-" means that no inhibition has been found; conditions: I and B 10 ul, L 5 ug
[41] = system: Pseudomonas paucimobilis ATCC 29837; experiment: Inhibition zone assay; design: key: --: "-" means that no inhibition has been found; conditions: L 5 ug
[42] = system: Listeria monocytogenes B5; experiment: Inhibition zone assay; design: key: --: "-" means that no inhibition has been found; conditions: L 5 ug
[43] = system: Rhizobium meliloti ZB 314; experiment: Inhibition zone assay; design: key: --: "-" means that no inhibition has been found; conditions: I and B 10 ul, L 5 ug
[44] = system: Agrobacterium tumefaciens DSM 3129; experiment: Inhibition zone assay; design: key: --: "-" means that no inhibition has been found; conditions: I and B 10 ul, L 5 ug
[45] = system: Serratia fonticola ATCC 298449; experiment: Inhibition zone assay; design: key: --: "-" means that no inhibition has been found; conditions: I and B 10 ul, L 5 ug
[46] = system: Xanthomonas campestris pv. graminis NCPPB 2700; experiment: Inhibition zone assay; design: key: --: "-" means that no inhibition has been found; conditions: I and B 10 ul, L 5 ug
[47] = system: Flavobacterium devorans NRRL B-54; experiment: Inhibition zone assay; design: key: --: "-" means that no inhibition has been found; conditions: I and B 10 ul, L 5 ug
[48] = system: Klebsiella aerogenes 1961 E; experiment: Inhibition zone assay; design: key: --: "-" means that no inhibition has been found; conditions: I and B 10 ul, L 5 ug
[49] = system: Agrobacterium rhizogenes ATCC 11325; experiment: Inhibition zone assay; design: key: --: "-" means that no inhibition has been found; conditions: I and B 10 ul, L 5 ug
[50] = system: Enterobacter agglomerans Gilardi 1081; experiment: Inhibition zone assay; design: key: --: "-" means that no inhibition has been found; conditions: I and B 10 ul, L 5 ug
[51] = system: Pseudomonas aureofaciens CCEB 518; experiment: Inhibition zone assay; design: key: --: "-" means that no inhibition has been found; conditions: I and B 10 ul, L 5 ug

CC[C@H](C)[C@H](NC(=O)[C@@H]1CCCN1C(=O)[C@H](CCCNC(=N)N)NC(=O)[C@H](CC(N)=O)NC(=O)[C@H](CC(N)=O)NC(=O)CN)C(=O)N[C@@H](Cc1ccc(O)cc1)C(=O)N[C@H](C(=O)N1CCC[C@H]1C(=O)N[C@@H](CCC(N)=O)C(=O)N1CCC[C@H]1C(=O)N[C@@H](CCCNC(=N)N)C(=O)N1CCC[C@H]1C(=O)N1CCC[C@H]1C(=O)N[C@@H](Cc1c[nH]cn1)C(=O)N1CCC[C@H]1C(=O)N[C@@H](CCCNC(=N)N)C(=O)N[C@@H](CC(C)C)C(=O)O)[C@@H](C)CC [Apid II] (H-GNNRPIYIPQPRPPHPRL-OH)
minimal inhibitory concentration [1]: 0.5 µg/mL (≈ 0.236 µM) | minimal inhibitory concentration [2]: 100 µg/mL | minimal inhibitory concentration [3]: 10 µg/mL (≈ 4.71 µM) | minimal inhibitory concentration [4]: 0.2 µg/mL (≈ 0.0942 µM) | minimal inhibitory concentration [5]: 0.2 µg/mL (≈ 0.0942 µM) | minimal inhibitory concentration (Salmonella Newport CD 94): 0.2 µg/mL (≈ 0.0942 µM) | minimal inhibitory concentration [6]: > 200 µg/mL | minimal inhibitory concentration [7]: 0.5 µg/mL (≈ 0.236 µM) | minimal inhibitory concentration (Bacillus alvei LMG 6922): > 200 µg/mL | minimal inhibitory concentration [8]: 1 µg/mL (≈ 0.471 µM) | minimal inhibitory concentration [9]: 50 µg/mL | minimal inhibitory concentration [10]: 0.02 µg/mL (≈ 0.00942 µM) | minimal inhibitory concentration [11]: 0.2 µg/mL (≈ 0.0942 µM) | minimal inhibitory concentration [12]: 0.1 µg/mL (≈ 0.0471 µM) | minimal inhibitory concentration [13]: 0.02 µg/mL (≈ 0.00942 µM) | bactericidal activity (E. coli NCTC 9001): possessed a bactericidal activity | minimal inhibitory concentration [14]: 2.5 µg/mL (≈ 1.18 µM) | minimal inhibitory concentration [15]: > 50 µg/mL | minimal inhibitory concentration [16]: > 50 µg/mL | minimal inhibitory concentration (Shigella flexneri CP 87): 0.1 µg/mL (≈ 0.0471 µM) | minimal inhibitory concentration [17]: 100 µg/mL (≈ 47.1 µM) | minimal inhibitory concentration [18]: 0.1 µg/mL (≈ 0.0471 µM)

chicken lysozyme: hen egg white lysozyme, comparison [reference compound]
diameter of growth-inhibition zone [19]: -- | diameter of growth-inhibition zone [20]: -- | diameter of growth-inhibition zone [21]: -- | diameter of growth-inhibition zone [22]: -- | diameter of growth-inhibition zone [23]: -- | diameter of growth-inhibition zone [24]: -- | diameter of growth-inhibition zone [25]: 9 mm | diameter of growth-inhibition zone [26]: 4 mm | diameter of growth-inhibition zone [27]: -- | diameter of growth-inhibition zone [28]: -- | diameter of growth-inhibition zone [29]: -- | diameter of growth-inhibition zone [30]: -- | diameter of growth-inhibition zone [31]: 6 mm | diameter of growth-inhibition zone [32]: -- | diameter of growth-inhibition zone [33]: 6 mm | diameter of growth-inhibition zone [34]: -- | diameter of growth-inhibition zone [35]: -- | diameter of growth-inhibition zone [36]: -- | diameter of growth-inhibition zone [37]: -- | diameter of growth-inhibition zone [38]: -- | diameter of growth-inhibition zone [39]: -- | diameter of growth-inhibition zone [40]: -- | diameter of growth-inhibition zone [41]: -- | diameter of growth-inhibition zone [42]: -- | diameter of growth-inhibition zone [43]: -- | diameter of growth-inhibition zone [44]: -- | diameter of growth-inhibition zone [45]: -- | diameter of growth-inhibition zone [46]: -- | diameter of growth-inhibition zone [47]: -- | diameter of growth-inhibition zone [48]: -- | diameter of growth-inhibition zone [49]: -- | diameter of growth-inhibition zone [50]: -- | diameter of growth-inhibition zone [51]: --
